Reference: US11382918B2, “Methods for treating Huntington's Disease” (PTC Therapeutics, Inc., priority 2017, dated 2022)

system: Endogenous Huntingtin Protein (HTT); assay: Endogenous Huntingtin Protein Assay (ELISA-based MSD electrochemiluminescence); type: cell-based; details: Table 1
Procedure: Compounds of Formula (I) were tested using the Meso Scale Discovery (MSD) Assay provided in International Application No. PCT/US2016/066042, filed on Dec. 11, 2016 and claiming priority to U.S. Provisional Application 62/265,652 filed on Dec. 10, 2015, published as International Publication No. WO 2017/100726 on Jun. 15, 2017, the entire contents of which are incorporated herein by reference.
The Endogenous Huntingtin Protein assay used in Example 1 was developed using the ELISA-based MSD electrochemiluminescence assay platform.
Endogenous Huntingtin Protein Assay
Meso Scale Discovery (MSD) 96-well or 384-well plates were coated overnight at 4° C. with MW1 (expanded polyglutamine) or MAB2166 monoclonal antibody (for capture) at a concentration of 1 μg/mL in PBS (30 μL per well). Plates were then washed three times with 300 µL wash buffer (0.05% Tween-20 in PBS) and blocked (100 μL blocking buffer; 5% BSA in PBS) for 4-5 hours at room temperature with rotational shaking and then washed three times with wash buffer.
Samples (25 μL) were transferred to the antibody-coated MSD plate and incubated overnight at 4° C. After removal of the lysates, the plate was washed three times with wash buffer, and 25 μL of #5656S (Cell signaling; rabbit monoclonal) secondary antibody (diluted to 0.25 μg/mL in 0.05% Tween-20 in blocking buffer) was added to each well and incubated with shaking for 1 Hour at room temperature. Following incubation with the secondary antibody, the wells were rinsed with wash buffer after which 25 μL of goat anti-rabbit SULFO TAG secondary detection antibody (required aspect of the MSD system) (diluted to 0.25 μg/mL in 0.05% Tween-20 in blocking buffer) was added to each well and incubated with shaking for 1 hour at room temperature. After rinsing three times with wash buffer, 150 μL of read buffer T with surfactant (MSD) were added to each empty well, and the plate was imaged on a SI 6000 imager (MSD) according to manufacturers' instructions provided for 96- or 384-well plates.

| Structure (SMILES) | IC50 [nM] |
| --- | --- |
| Cc1nc2ccc(-c3cc(=O)n4cc(C5=CCN(C)CC5)ncc4n3)cc2o1 [compound 422, 2-(2-methyl-1,3-benzoxazol-6-yl)-7-(1-methyl-1,2,3,6-tetrahydropyridin-4-yl)-4H-pyrazino[1,2-a]pyrimidin-4-one] | 100 to 500 |
| CCN1CC=C(c2cn3c(=O)cc(-c4ccc5nc(C)oc5c4)nc3cn2)CC1 [compound 423, 7-(1-ethyl-1,2,3,6-tetrahydropyridin-4-yl)-2-(2-methyl-1,3-benzoxazol-6-yl)-4H-pyrazino[1,2-a]pyrimidin-4-one] | 3000 to 33000 |
| CN(C)c1ccc(-c2cc(=O)n3cc(C4=CCNCC4)ccc3n2)cn1 [compound 444, 2-[6-(dimethylamino)pyridin-3-yl]-7-(1,2,3,6-tetrahydropyridin-4-yl)-4H-pyrido[1,2-a]pyrimidin-4-one] | 3000 to 33000 |
| CN1CC=C(c2ccc3nc(-c4ccc(N(C)C)nc4)cc(=O)n3c2)CC1 [compound 450, 2-[6-(dimethylamino)pyridin-3-yl]-7-(1-methyl-1,2,3,6-tetrahydropyridin-4-yl)-4H-pyrido[1,2-a]pyrimidin-4-one] | 3000 to 33000 |
| CCN1CC=C(c2ccc3nc(-c4ccc5c(cnn5C)c4)cc(=O)n3c2)CC1 [compound 463, 7-(1-ethyl-1,2,3,6-tetrahydropyridin-4-yl)-2-(1-methyl-1H-indazol-5-yl)-4H-pyrido[1,2-a]pyrimidin-4-one] | 3000 to 33000 |
| Cn1cc2cc(-c3cc(=O)n4cc(C5=CCNCC5)ccc4n3)ccc2n1 [compound 474, 2-(2-methyl-2H-indazol-5-yl)-7-(1,2,3,6-tetrahydropyridin-4-yl)-4H-pyrido[1,2-a]pyrimidin-4-one] | 500 to 1000 |
| CN1CC=C(c2ccc3nc(-c4ccc5nn(C)cc5c4)cc(=O)n3c2)CC1 [compound 476, 2-(2-methyl-2H-indazol-5-yl)-7-(1-methyl-1,2,3,6-tetrahydropyridin-4-yl)-4H-pyrido[1,2-a]pyrimidin-4-one] | 3000 to 33000 |
| CCN1CC=C(c2ccc3nc(-c4ccc5nn(C)cc5c4)cc(=O)n3c2)CC1 [compound 477, 7-(1-ethyl-1,2,3,6-tetrahydropyridin-4-yl)-2-(2-methyl-2H-indazol-5-yl)-4H-pyrido[1,2-a]pyrimidin-4-one] | 1000 to 3000 |
| Cc1cn2cc(-c3cc(=O)n4cc(C5=CCN(C(C)C)CC5)ncc4n3)cc2c(C)n1 [compound 479, 2-(1,3-dimethylpyrrolo[1,2-a]pyrazin-7-yl)-7-[1-(propan-2-yl)-1,2,3,6-tetrahydropyridin-4-yl]-4H-pyrazino[1,2-a]pyrimidin-4-one] | 3000 to 33000 |
| Cc1cn2nc(-c3cc(=O)n4cc(C5=CCNCC5)cc(C)c4n3)cc2c(C)n1 [compound 480, 2-(4,6-dimethylpyrazolo[1,5-a]pyrazin-2-yl)-9-methyl-7-(1,2,3,6-tetrahydropyridin-4-yl)-4H-pyrido[1,2-a]pyrimidin-4-one] | 100 to 500 |
| Cc1cn2nc(-c3cc(=O)n4cc(C5=CCN(C)CC5)cc(C)c4n3)cc2c(C)n1 [compound 481, 2-(4,6-dimethylpyrazolo[1,5-a]pyrazin-2-yl)-9-methyl-7-(1-methyl-1,2,3,6-tetrahydropyridin-4-yl)-4H-pyrido[1,2-a]pyrimidin-4-one] | 3000 to 33000 |
| CCN1CC=C(c2cc(C)c3nc(-c4cc5c(C)nc(C)cn5n4)cc(=O)n3c2)CC1 [compound 482, 2-(4,6-dimethylpyrazolo[1,5-a]pyrazin-2-yl)-7-(1-ethyl-1,2,3,6-tetrahydropyridin-4-yl)-9-methyl-4H-pyrido[1,2-a]pyrimidin-4-one] | 3000 to 33000 |
| Cn1ncc2cc(-c3cc(=O)n4cc(C5=CCNCC5)ncc4n3)ccc21 [compound 505, 2-(1-methyl-1H-indazol-5-yl)-7-(1,2,3,6-tetrahydropyridin-4-yl)-4H-pyrazino[1,2-a]pyrimidin-4-one] | 3000 to 33000 |
| CN1CC=C(c2cn3c(=O)cc(-c4ccc5c(cnn5C)c4)nc3cn2)CC1 [compound 506, 2-(1-methyl-1H-indazol-5-yl)-7-(1-methyl-1,2,3,6-tetrahydropyridin-4-yl)-4H-pyrazino[1,2-a]pyrimidin-4-one] | 3000 to 33000 |

Other lines, results leading:

| IC50 [nM] | Structure (SMILES) |
| --- | --- |
| 3000 to 33000 | Cc1cn2nc(-c3cc(=O)n4cc(N5CCC(N6CCOCC6)CC5)ccc4n3)cc2c(C)n1 [compound 428, 2-(4,6-dimethylpyrazolo[1,5-a]pyrazin-2-yl)-7-[4-(morpholin-4-yl)piperidin-1-yl]-4H-pyrido[1,2-a]pyrimidin-4-one] |
| 500 to 1000 | Cc1cn2cc(-c3cc(=O)n4cc(C5CCNCC5)ccc4n3)ccc2n1 [compound 438, 2-(2-methylimidazo[1,2-a]pyridin-6-yl)-7-(piperidin-4-yl)-4H-pyrido[1,2-a]pyrimidin-4-one] |
| 1000 to 3000 | Cc1cn2nc(-c3cc(=O)n4cc(N5CCN[C@@H](C)C5)ccc4n3)cc2cn1 [compound 441, 7-[(3S)-3-methylpiperazin-1-yl]-2-(6-methylpyrazolo[1,5-a]pyrazin-2-yl)-4H-pyrido[1,2-a]pyrimidin-4-one] |
| 3000 to 33000 | Cc1cn2nc(-c3cc(=O)n4cc(N5C[C@@H](C)N[C@@H](C)C5)ccc4n3)cc2cn1 [compound 442, 7-[(3R,5S)-3,5-dimethylpiperazin-1-yl]-2-(6-methylpyrazolo[1,5-a]pyrazin-2-yl)-4H-pyrido[1,2-a]pyrimidin-4-one] |
| 3000 to 33000 | CCN(CC)C1CCN(c2ccc3nc(-c4cc5c(C)nc(C)cn5n4)cc(=O)n3c2)CC1 [compound 451, 7-[4-(diethylamino)piperidin-1-yl]-2-(4,6-dimethylpyrazolo[1,5-a]pyrazin-2-yl)-4H-pyrido[1,2-a]pyrimidin-4-one] |
| 100 to 500 | Cc1cn2nc(-c3cc(=O)n4cc(C5CCNCC5)ccc4n3)cc2c(C)n1 [compound 452, 2-(4,6-dimethylpyrazolo[1,5-a]pyrazin-2-yl)-7-(piperidin-4-yl)-4H-pyrido[1,2-a]pyrimidin-4-one] |
| 3000 to 33000 | Cc1cn2cc(-c3ccc4nc(C5CCN(C)CC5)cc(=O)n4c3)ccc2n1 [compound 460, 7-(2-methylimidazo[1,2-a]pyridin-6-yl)-2-(1-methylpiperidin-4-yl)-4H-pyrido[1,2-a]pyrimidin-4-one] |
| 3000 to 33000 | Cc1cn2cc(-c3ccc4nc(C5CCN(C(C)C)CC5)cc(=O)n4c3)ccc2n1 [compound 461, 7-(2-methylimidazo[1,2-a]pyridin-6-yl)-2-[1-(propan-2-yl)piperidin-4-yl]-4H-pyrido[1,2-a]pyrimidin-4-one] |
| 1000 to 3000 | Cc1cn2cc(-c3ccc4nc(C5CCN(C)CC5)cc(=O)n4c3)cc(F)c2n1 [compound 462, 7-(8-fluoro-2-methylimidazo[1,2-a]pyridin-6-yl)-2-(1-methylpiperidin-4-yl)-4H-pyrido[1,2-a]pyrimidin-4-one] |
| 3000 to 33000 | CN(C)c1ccc(-c2cc(=O)n3cc(C4CCNCC4)ccc3n2)cn1 [compound 465, 2-[6-(dimethylamino)pyridin-3-yl]-7-(piperidin-4-yl)-4H-pyrido[1,2-a]pyrimidin-4-one] |
| 500 to 1000 | Cc1cc2cc(-c3cc(=O)n4cc(N5CCNCC5)ccc4n3)oc2c(C)n1 [compound 486, 2-(5,7-dimethylfuro[2,3-c]pyridin-2-yl)-7-(piperazin-1-yl)-4H-pyrido[1,2-a]pyrimidin-4-one] |
| 500 to 1000 | Cc1cc2cc(-c3cc(=O)n4cc(N5CCN(C)CC5)ccc4n3)oc2c(C)n1 [compound 487, 2-(5,7-dimethylfuro[2,3-c]pyridin-2-yl)-7-(4-methylpiperazin-1-yl)-4H-pyrido[1,2-a]pyrimidin-4-one] |
| 3000 to 33000 | CN1CCN(c2ccc3nc(-c4ccc5c(cnn5C)c4)cc(=O)n3c2)CC1 [compound 489, 2-(1-methyl-1H-indazol-5-yl)-7-(4-methylpiperazin-1-yl)-4H-pyrido[1,2-a]pyrimidin-4-one] |
| 3000 to 33000 | Cn1ncc2cc(-c3cc(=O)n4cc(N5CCNCC5)ccc4n3)ccc21 [compound 490, 2-(1-methyl-1H-indazol-5-yl)-7-(piperazin-1-yl)-4H-pyrido[1,2-a]pyrimidin-4-one] |
| < 100 | Cc1cn2nc(-c3cc(=O)n4cc(C5CCNCC5)ncc4n3)cc2c(C)n1 [compound 502, 2-(4,6-dimethylpyrazolo[1,5-a]pyrazin-2-yl)-7-(piperidin-4-yl)-4H-pyrazino[1,2-a]pyrimidin-4-one] |
| 1000 to 3000 | Cc1cn2nc(-c3cc(=O)n4cc(C5CCN(C)CC5)ncc4n3)cc2c(C)n1 [compound 503, 2-(4,6-dimethylpyrazolo[1,5-a]pyrazin-2-yl)-7-(1-methylpiperidin-4-yl)-4H-pyrazino[1,2-a]pyrimidin-4-one] |
| 100 to 500 | CCN1CCC(c2cn3c(=O)cc(-c4cc5c(C)nc(C)cn5n4)nc3cn2)CC1 [compound 504, 2-(4,6-dimethylpyrazolo[1,5-a]pyrazin-2-yl)-7-(1-ethylpiperidin-4-yl)-4H-pyrazino[1,2-a]pyrimidin-4-one] |
